The text below walks through data of patent US11071743B1, “Effective, non-toxic treatments for brain cancer” (priority 2015, dated 2021).

Molecules are shown by their SMILES.

The test system of one data set is glioblastoma. The following applies: in lab dishes; cited from earlier work.
For data set [1] the following is noted: normal brains; cited from earlier work.
The next data set concerns glioblastoma multiforme. In words: Example Two: treatment of a patient. The data set is classed as in vivo, human. The settings on record: dose escalated to 22 mg/kg. How it is done: A person living in Argentina was diagnosed with glioblastoma multiforme in January of 2014 and was immediately treated with surgery, chemotherapy, and radiation.
Shortly thereafter, near the middle of October, the patient began receiving the following regimen, alfacalcidol not being available: valganciclovir, 450 mg twice a day melatonin, 12 mg twice a day
BHT, 700 mg in the morning plus 350 mg at night resveratrol, 175 mg twice a day lycopene, 15 mg once a day
Honokiol, 250 mg twice a day metformin, 500 mg once a day, and vitamin D3, 2800 IU at night.
About two weeks later, bio-absorbable curcumin (from the Life Extension Foundation, described above), 400 mg twice a day, was added to the regimen, and circa November 4th, alfacalcidol was added to the regimen (3 micrograms in the morning).
The supply of alfacalcidol ran out at about that time. At the same time, sugar and other carbohydrate intake was restricted. In February, the dexamethasone dose was cut to 1 and 2 mg in the morning and evening, respectively. […] Alfacalcidol was resumed in April, at a double dose (3 micrograms twice a day) to compensate in part for the previous lapse, at which time the dexamethasone dose was cut to 1 mg twice a day. The tumor continued to show no progression in May, and the alfacalcidol dose was reduced to 2 micrograms twice a day in June, when the metformin dose was raised to […] in the morning. […]

Data set [2] relates to lipid-encapsulated viruses. The settings on record: in vitro; cited from earlier work.

On to `Oc1ccc(C=Cc2cc(O)cc(O)c2)cc1` [Resveratrol], for which, in the data set with glioblastoma, the anti-glioblastoma effects entry is reported as “powerful anti-glioblastoma effects”. Besides, in data set [1], the blood-brain barrier penetration entry was “poorly if at all”. Regarding `O=C(O)C(Cl)Cl` [DCA, dichloroacetate], the “side effect of DCA” value in the data set with glioblastoma multiforme is given as “numbness was experienced”.

In the case of `Cc1cc(C(C)(C)C)c(O)c(C(C)(C)C)c1` [BHT, butylated hydroxytoluene], the “killing of lipid-encapsulated viruses” value in data set [2] is on record as “kill lipid-encapsulated viruses”.
